In patent US10287275B2, “16-member triamilide derivatives and uses thereof” (VICTOR PHARMA CO., LTD. ZHENJIANG, priority 2015, dated 2019):
In brackets after ≈: the same amount, converted by molar mass.

Tests used:
Assay type in all cases: cell-based
[1] = system: M. gallisepticum S6; assay: Mycoplasma susceptibility testing (MIC); conditions: Mycoplasmoides gallisepticum
Description: (§1) The MIC's in Table I and Table II were determined by standard agar-dilution assays or broth-dilution microtiter test.

[2] = system: M. gallisepticum BG44T; assay: Mycoplasma susceptibility testing (MIC); conditions: Mycoplasmoides gallisepticum
Description: as §1

[3] = system: M. hyorinis BTS-7; assay: Mycoplasma susceptibility testing (MIC)
Description: as §1

[4] = system: Actinobacillus pleuropneumoniae serotype 7; assay: Antibacterial MIC, agar-dilution or broth-dilution microtiter test; conditions: Strain B: Actinobacillus pleuropneumoniae serotype 7
Description: as §1

[5] = system: Streptococcus pneumoniae 2349; assay: as above; conditions: Strain L: Streptococcus pneumoniae 2349
Description: as §1

[6] = system: Escherichia coli IN-F6-7; assay: as above; conditions: INF67; Strain E: Escherichia coli IN-F6-7
Description: as §1

[7] = system: Staphylococcus aureus 5-1; assay: as above; conditions: 51; Strain G: Staphylococcus aureus 5-1
Description: as §1

[8] = system: salmonella LD4-8; assay: as above; conditions: LD48; Strain I: salmonella LD4-8
Description: as §1

[9] = system: Streptococcus pneumoniae 49619 (QC strain); assay: as above; conditions: Strain M: Streptococcus pneumoniae 49619 (QC strain)
Description: as §1

[10] = system: Actinobacillus pleuropneumoniae serotype 1; assay: as above; conditions: Strain A: Actinobacillus pleuropneumoniae serotype 1
Description: as §1

[11] = system: Klebsiella pneumoniae 3699; assay: as above; conditions: Strain K: Klebsiella pneumoniae 3699
Description: as §1

[12] = system: Pasteurella 8217; assay: as above; conditions: Strain C: Pasteurella 8217
Description: as §1

[13] = system: Staphylococcus aureus 29213 (QC strain); assay: as above; conditions: Strain H: Staphylococcus aureus 29213 (QC strain)
Description: as §1

[14] = system: Pasteurella 8229; assay: as above; conditions: Strain D: Pasteurella 8229
Description: as §1

[15] = system: Escherichia coli 25922 (QC strain); assay: as above; conditions: Strain F: Escherichia coli 25922 (QC strain)
Description: as §1

[16] = system: Klebsiella pneumoniae 3753; assay: as above; conditions: Strain J: Klebsiella pneumoniae 3753
Description: as §1

| SMILES | MIC [1] | MIC [2] | MIC [3] | MIC [4] | MIC [5] | MIC [6] | MIC [7] | MIC [8] | MIC [9] | MIC [10] | MIC [11] | MIC [12] | MIC [13] | MIC [14] | MIC [15] | MIC [16] |
| --- | --- | --- | --- | --- | --- | --- | --- | --- | --- | --- | --- | --- | --- | --- | --- | --- |
| CC[C@H]1OC(=O)C[C@@H](O)[C@H](C)[C@@H](O[C@@H]2O[C@H](C)[C@@H](O)[C@H](N(C)C)[C@H]2O)[C@@H](CCN2CCCCC2)C[C@@H](C)C(=O)/C=C/C(C)=C/[C@@H]1CN(CC)CC [Compound 4a, (4R,5S,6S,7R,9R,11E,13E,15R,16R)-15-((diethylamino)methyl)-6-(((2R,3R,4S,5S,6R)-4-(dimethylamino)-3,5-dihydroxy-6-methyltetrahydro-2H-pyran-2-yl)oxy)-16-ethyl-4-hydroxy-5,9,13-trimethyl-7-(2-(piperidin-1-yl)ethyl)oxacyclohexadeca-11,13-diene-2,10-dione] | < 0.12 mg/L | < 0.12 mg/L | 62.5 mg/L (≈ 86.6 µM) | 32 mg/L (≈ 44.3 µM) | 0.5 mg/L (≈ 0.693 µM) | 8 mg/L (≈ 11.1 µM) | > 256 mg/L | 4 mg/L (≈ 5.54 µM) | 8 mg/L (≈ 11.1 µM) | 32 mg/L (≈ 44.3 µM) | > 256 mg/L | 0.5 mg/L (≈ 0.693 µM) | 4 mg/L (≈ 5.54 µM) | 0.5 mg/L (≈ 0.693 µM) | 4 mg/L (≈ 5.54 µM) | 32 mg/L (≈ 44.3 µM) |
| CCCN(CCC)C[C@H]1/C=C(C)/C=C/C(=O)[C@H](C)C[C@H](CCN2CCCCC2)[C@H](O[C@@H]2O[C@H](C)[C@@H](O)[C@H](N(C)C)[C@H]2O)[C@@H](C)[C@H](O)CC(=O)O[C@@H]1CC [Compound 4b, (4R,5S,6S,7R,9R,11E,13E,15R,16R)-6-(((2R,3R,4S,5S,6R)-4-(dimethylamino)-3,5-dihydroxy-6-methyltetrahydro-2H-pyran-2-yl)oxy)-15-((dipropylamino)methyl)-16-ethyl-4-hydroxy-5,9,13-trimethyl-7-(2-(piperidin-1-yl)ethyl)oxacyclohexadeca-11,13-diene-2,10-dione] | 0.49 mg/L (≈ 0.653 µM) | < 0.12 mg/L | 15.6 mg/L (≈ 20.8 µM) | 32 mg/L (≈ 42.7 µM) | 1 mg/L (≈ 1.33 µM) | 8 mg/L (≈ 10.7 µM) | > 256 mg/L | 8 mg/L (≈ 10.7 µM) | 16 mg/L (≈ 21.3 µM) | 32 mg/L (≈ 42.7 µM) | > 256 mg/L | 1 mg/L (≈ 1.33 µM) | 16 mg/L (≈ 21.3 µM) | 0.25 mg/L (≈ 0.333 µM) | 4 mg/L (≈ 5.33 µM) | 32 mg/L (≈ 42.7 µM) |
| CCCCNC[C@H]1/C=C(C)/C=C/C(=O)[C@H](C)C[C@H](CCN2CCCCC2)[C@H](O[C@@H]2O[C@H](C)[C@@H](O)[C@H](N(C)C)[C@H]2O)[C@@H](C)[C@H](O)CC(=O)O[C@@H]1CC [Compound 4c, (4R,5S,6S,7R,9R,11E,13E,15R,16R)-15-((butylamino)methyl)-6-(((2R,3R,4S,5S,6R)-4-(dimethylamino)-3,5-dihydroxy-6-methyltetrahydro-2H-pyran-2-yl)oxy)-16-ethyl-4-hydroxy-5,9,13-trimethyl-7-(2-(piperidin-1-yl)ethyl)oxacyclohexadeca-11,13-diene-2,10-dione] | 15.6 mg/L (≈ 21.6 µM) | 7.82 mg/L (≈ 10.8 µM) | 31.2 mg/L (≈ 43.3 µM) | 128 mg/L (≈ 177 µM) | 2 mg/L (≈ 2.77 µM) | 16 mg/L (≈ 22.2 µM) | > 256 mg/L | 32 mg/L (≈ 44.3 µM) | 256 mg/L (≈ 355 µM) | 64 mg/L (≈ 88.6 µM) | > 256 mg/L | 4 mg/L (≈ 5.54 µM) | 64 mg/L (≈ 88.6 µM) | 4 mg/L (≈ 5.54 µM) | 16 mg/L (≈ 22.2 µM) | 128 mg/L (≈ 177 µM) |
| CC[C@H]1OC(=O)C[C@@H](O)[C@H](C)[C@@H](O[C@@H]2O[C@H](C)[C@@H](O)[C@H](N(C)C)[C@H]2O)[C@@H](CCN2CCCCC2)C[C@@H](C)C(=O)/C=C/C(C)=C/[C@@H]1CN1CCCC1 [Compound 4d, (4R,5S,6S,7R,9R,11E,13E,15R,16R)-6-(((2R,3R,4S,5S,6R)-4-(dimethylamino)-3,5-dihydroxy-6-methyltetrahydro-2H-pyran-2-yl)oxy)-16-ethyl-4-hydroxy-5,9,13-trimethyl-7-(2-(piperidin-1-yl)ethyl)-15-(pyrrolidin-1-ylmethyl)oxacyclohexadeca-11,13-diene-2,10-dione] | – | – | – | > 256 mg/L | 64 mg/L (≈ 88.9 µM) | > 256 mg/L | > 256 mg/L | > 256 mg/L | > 256 mg/L | > 256 mg/L | > 256 mg/L | 256 mg/L (≈ 356 µM) | 256 mg/L (≈ 356 µM) | 128 mg/L (≈ 178 µM) | > 256 mg/L | > 256 mg/L |
| CC[C@H]1OC(=O)C[C@@H](O)[C@H](C)[C@@H](O[C@@H]2O[C@H](C)[C@@H](O)[C@H](N(C)C)[C@H]2O)[C@@H](CCN2CCCCC2)C[C@@H](C)C(=O)/C=C/C(C)=C/[C@@H]1CNCc1ccccc1 [Compound 4e, (4R,5S,6S,7R,9R,11E,13E,15R,16R)-15-((benzylamino)methyl)-6-(((2R,3R,4S,5S,6R)-4-(dimethylamino)-3,5-dihydroxy-6-methyltetrahydro-2H-pyran-2-yl)oxy)-16-ethyl-4-hydroxy-5,9,13-trimethyl-7-(2-(piperidin-1-yl)ethyl)oxacyclohexadeca-11,13-diene-2,10-dione] | – | – | – | 256 mg/L (≈ 339 µM) | 64 mg/L (≈ 84.7 µM) | 256 mg/L (≈ 339 µM) | 256 mg/L (≈ 339 µM) | > 256 mg/L | 256 mg/L (≈ 339 µM) | 256 mg/L (≈ 339 µM) | > 256 mg/L | 32 mg/L (≈ 42.3 µM) | 64 mg/L (≈ 84.7 µM) | 16 mg/L (≈ 21.2 µM) | 256 mg/L (≈ 339 µM) | > 256 mg/L |
| CC[C@H]1OC(=O)C[C@@H](O)[C@H](C)[C@@H](O[C@@H]2O[C@H](C)[C@@H](O)[C@H](N(C)C)[C@H]2O)[C@@H](CCN2CCCCC2)C[C@@H](C)C(=O)/C=C/C(C)=C/[C@@H]1CN(C)Cc1ccccc1 [Compound 4f, (4R,5S,6S,7R,9R,11E,13E,15R,16R)-15-((benzyl(methyl)amino)methyl)-6-(((2R,3R,4S,5S,6R)-4-(dimethylamino)-3,5-dihydroxy-6-methyltetrahydro-2H-pyran-2-yl)oxy)-16-ethyl-4-hydroxy-5,9,13-trimethyl-7-(2-(piperidin-1-yl)ethyl)oxacyclohexadeca-11,13-diene-2,10-dione] | 0.24 mg/L (≈ 0.312 µM) | < 0.12 mg/L | 0.98 mg/L (≈ 1.27 µM) | 64 mg/L (≈ 83.1 µM) | < 0.12 mg/L | 4 mg/L (≈ 5.19 µM) | 128 mg/L (≈ 166 µM) | 4 mg/L (≈ 5.19 µM) | 0.5 mg/L (≈ 0.649 µM) | 16 mg/L (≈ 20.8 µM) | > 256 mg/L | < 0.12 mg/L | 2 mg/L (≈ 2.6 µM) | 0.12 mg/L (≈ 0.156 µM) | 4 mg/L (≈ 5.19 µM) | 32 mg/L (≈ 41.6 µM) |
| CC[C@H]1OC(=O)C[C@@H](O)[C@H](C)[C@@H](O[C@@H]2O[C@H](C)[C@@H](O)[C@H](N(C)C)[C@H]2O)[C@@H](CCN2CCCCC2)C[C@@H](C)C(=O)/C=C/C(C)=C/[C@@H]1CN(CCO)CCO [Compound 4g, (4R,5S,6S,7R,9R,11E,13E,15R,16R)-15-((bis(2-hydroxyethyl)amino)methyl)-6-(((2R,3R,4S,5S,6R)-4-(dimethylamino)-3,5-dihydroxy-6-methyltetrahydro-2H-pyran-2-yl)oxy)-16-ethyl-4-hydroxy-5,9,13-trimethyl-7-(2-(piperidin-1-yl)ethyl)oxacyclohexadeca-11,13-diene-2,10-dione] | – | – | – | 256 mg/L (≈ 340 µM) | 32 mg/L (≈ 42.4 µM) | 256 mg/L (≈ 340 µM) | > 256 mg/L | 128 mg/L (≈ 170 µM) | > 256 mg/L | 256 mg/L (≈ 340 µM) | > 256 mg/L | < 0.12 mg/L | 128 mg/L (≈ 170 µM) | 32 mg/L (≈ 42.4 µM) | 256 mg/L (≈ 340 µM) | > 256 mg/L |
| CC[C@H]1OC(=O)C[C@@H](O)[C@H](C)[C@@H](O[C@@H]2O[C@H](C)[C@@H](O)[C@H](N(C)C)[C@H]2O)[C@@H](CCN2CCCCC2)C[C@@H](C)C(=O)/C=C/C(C)=C/[C@@H]1CNC1CCCCC1 [Compound 4h, (4R,5S,6S,7R,9R,11E,13E,15R,16R)-15-((cyclohexylamino)methyl)-6-(((2R,3R,4S,5S,6R)-4-(dimethylamino)-3,5-dihydroxy-6-methyltetrahydro-2H-pyran-2-yl)oxy)-16-ethyl-4-hydroxy-5,9,13-trimethyl-7-(2-(piperidin-1-yl)ethyl)oxacyclohexadeca-11,13-diene-2,10-dione] | – | – | – | 64 mg/L (≈ 85.6 µM) | 2 mg/L (≈ 2.67 µM) | 16 mg/L (≈ 21.4 µM) | 256 mg/L (≈ 342 µM) | 32 mg/L (≈ 42.8 µM) | 32 mg/L (≈ 42.8 µM) | 64 mg/L (≈ 85.6 µM) | > 256 mg/L | 16 mg/L (≈ 21.4 µM) | 64 mg/L (≈ 85.6 µM) | 2 mg/L (≈ 2.67 µM) | 16 mg/L (≈ 21.4 µM) | 128 mg/L (≈ 171 µM) |
| CC[C@H]1OC(=O)C[C@@H](O)[C@H](C)[C@@H](O[C@@H]2O[C@H](C)[C@@H](O)[C@H](N(C)C)[C@H]2O)[C@@H](CCN2C[C@H](C)C[C@H](C)C2)C[C@@H](C)C(=O)/C=C/C(C)=C/[C@@H]1CO[C@@H]1O[C@H](C)[C@@H](O)[C@@H](OC)[C@H]1OC [Tilmicosin, reference compound] | < 0.12 mg/L | < 0.12 mg/L | 3.91 mg/L (≈ 4.5 µM) | 32 mg/L (≈ 36.8 µM) | 0.5 mg/L (≈ 0.575 µM) | 16 mg/L (≈ 18.4 µM) | > 256 mg/L | 32 mg/L (≈ 36.8 µM) | 8 mg/L (≈ 9.2 µM) | 32 mg/L (≈ 36.8 µM) | > 256 mg/L | 8 mg/L (≈ 9.2 µM) | 0.5 mg/L (≈ 0.575 µM) | 0.5 mg/L (≈ 0.575 µM) | 8 mg/L (≈ 9.2 µM) | 64 mg/L (≈ 73.6 µM) |
